≈ marks a conversion by molar mass, not a printed value. Read-outs that look alike come from different tables or passages of the source.
How the values were obtained:
M6 = experiment: MIC, microdilution broth method; format: cell-based
S. aureus SA2 = format: cell-based; conditions: S. aureus SA2; in µg/mL
S. aureus SA3 = experiment: MIC, extended Gram-positive panel; format: cell-based; conditions: S. aureus SA3
S. aureus SA4 = experiment: MIC, extended Gram-positive panel; format: cell-based; conditions: S. aureus SA4
S. epidermidis SE1 = experiment: MIC, extended Gram-positive panel; format: cell-based; conditions: S. epidermidis SE1; in µg/mL
S. aureus SA1 = format: cell-based; conditions: S. aureus SA1
S. aureus SA5 = experiment: MIC, extended Gram-positive panel; format: cell-based; conditions: S. aureus SA5
S. haemolyticus SH1 = experiment: MIC, extended Gram-positive panel; format: cell-based; conditions: S. haemolyticus SH1
S. aureus SA7 = experiment: MIC, extended Gram-positive panel; format: cell-based; conditions: S. aureus SA7
S. aureus SA6 = experiment: MIC, extended Gram-positive panel; format: cell-based; conditions: S. aureus SA6
E. faecium EF2 = experiment: MIC, extended Gram-positive panel; format: cell-based; conditions: E. faecium EF2; in µg/mL
S. aureus SA9 = experiment: MIC, extended Gram-positive panel; format: cell-based; conditions: S. aureus SA9
S. aureus SA8 = experiment: MIC, extended Gram-positive panel; format: cell-based; conditions: S. aureus SA8
S. aureus SA10 = experiment: MIC, extended Gram-positive panel; format: cell-based; conditions: S. aureus SA10; in µg/mL
E. faecalis EF1 = experiment: MIC, extended Gram-positive panel; format: cell-based; conditions: E. faecalis EF1
EC12923 = experiment: MIC, microdilution broth method; format: cell-based; conditions: EC12923; Normal (without PMBN); in µg/mL
EMRSA16 = experiment: MIC, microdilution broth method; format: cell-based, Staphylococcus aureus; conditions: EMRSA16, vs parent fluoroquinolone
EMRSA15 = experiment: MIC, microdilution broth method; format: cell-based, Staphylococcus aureus; conditions: EMRSA15, vs parent fluoroquinolone
Ab17978 = experiment: MIC, microdilution broth method; format: cell-based; conditions: Ab17978; Normal (without PMBN)
MSSA 9144 strain = experiment: Reserpine assay; format: cell-based, S. aureus; conditions: compound at 0.25×MIC with reserpine
Procedure: (§1) A simple plate based method was used as described by Beyer et al. (24). […] Reserpine was added at a final concentration of 10 µg/mL (made up at 40 μg/mL in TSB, 50 μL per well). The bacteria were added at an OD of 0.01 in TSB (100 μL/well). The plate was a normal clear plate as used for MICs. OD was read every 30 minutes for 9 hours (the literature states 7 hours, but this is strain-dependent). Blanks of TSB and water were added to ensure no infections were present.
(§2) The mechanism of inhibition for reserpine involves direct binding to and competitive inhibition of the efflux pump during drug/H^+ antiport. This assay was validated as a method for testing active efflux of fluoroquinolones in Staphylococcus strains by Beyer et al. (24).

EMRSA 15 strain = experiment: Reserpine assay; format: cell-based, S. aureus; conditions: compound at 0.25×MIC with reserpine
Procedure: as §1, §2

[1] = test system: multidrug resistant strains; experiment: Reserpine growth assay in several multidrug resistant strains; format: cell-based; conditions: FIG. 27
Procedure: Reserpine was added at a final concentration of 10 g/mL (made up at 40 μg/mL in TSB, 50 μL per well). The bacteria were added at an OD of 0.01 in TSB (100 μL/well). The plate was a normal clear plate as used for MICs. OD was read every 30 minutes for 9 hours (the literature states 7 hours, but this is strain-dependent). Blanks of TSB and water were added to ensure no infections were present.

C[C@H]1COc2c(N3CC[C@@H](Nc4cnccn4)C3)c(F)cc3c(=O)c(C(=O)O)cn1c23 [KSN-BL1]
MIC (M6; Klebsiella pneumoniae (M6), read-out: MIC): 0.5 µg/mL (≈ 1.18 µM)

CCn1cc(C(=O)O)c(=O)c2cc(F)c(N3CCNCC3)cc21 [NOR]
MIC (S. aureus SA2): 8-64
MIC (S. aureus SA3): 64 µg/mL (≈ 200 µM)
MIC (S. aureus SA4): 64 µg/mL (≈ 200 µM)
MIC (S. epidermidis SE1): 1-4

O=C(O)c1cn(C2CC2)c2cc(N3CCN(Cc4cccc5ccccc45)CC3)c(F)cc2c1=O [ML-77-005]
MIC (S. aureus SA1): 2 µg/mL (≈ 4.24 µM)
MIC (S. aureus SA5): 2 µg/mL (≈ 4.24 µM)
MIC (S. haemolyticus SH1): 4 µg/mL (≈ 8.48 µM)
MIC (S. aureus SA7): 2 µg/mL (≈ 4.24 µM)
MIC (S. aureus SA2): 0.5
MIC (S. aureus SA6): 2 µg/mL (≈ 4.24 µM)
MIC (E. faecium EF2): 2
MIC (S. aureus SA9): 2 µg/mL (≈ 4.24 µM)
MIC (S. aureus SA8): 2 µg/mL (≈ 4.24 µM)
MIC (S. aureus SA10): 2
MIC (E. faecalis EF1): 2 µg/mL (≈ 4.24 µM)
MIC (S. aureus SA3): 2 µg/mL (≈ 4.24 µM)
MIC (S. aureus SA4): 2 µg/mL (≈ 4.24 µM)

O=C(O)c1cn(C2CC2)c2cc(N3CCNCC3)c(F)cc2c1=O [Ciprofloxacin, ciprofloxacin, reference compound]
MIC (S. epidermidis SE1): 0.5-1

C[C@H]1COc2c(N3CCN(c4ccncn4)CC3)c(F)cc3c(=O)c(C(=O)O)cn1c23 [ML-83-001, (S)-9-fluoro-3-methyl-7-oxo-10-(4-(pyrimidin-4-yl)piperazin-1-yl)-2,3-dihydro-7H-[1,4]oxazino[2,3,4-ij]quinoline-6-carboxylic Acid]
MIC (EC12923): 1-4

CCn1cc(C(=O)O)c(=O)c2cc(F)c(N3CCN(Cc4cccc5ccccc45)CC3)nc21 [ML-77-025]
fold potentiation of MIC (EMRSA16): 64-128 fold
fold potentiation of MIC (EMRSA15): 64-128 fold

C[C@H]1COc2c(N3CCN(c4ccncc4)CC3)c(F)cc3c(=O)c(C(=O)O)cn1c23 [ML-83-019]
MIC (M6; M6, Normal (without PMBN), in µg/mL): 64
MIC (Ab17978): 64 µg/mL (≈ 151 µM)
MIC (EC12923): 32

CCn1cc(C(=O)O)c(=O)c2cc(F)c(N3CCNCC3)cc21 [Norfloxacin, norfloxacin, reference compound]
efflux by the strain (reserpine assay) (MSSA 9144 strain): effluxed
efflux by the strain (reserpine assay) (EMRSA 15 strain): effluxed

Cc1cc(C)nc(N[C@@H]2CCN(c3c(F)cc4c(=O)c(C(=O)O)cn5c4c3OC[C@@H]5C)C2)n1 [KSN-BL7]
efflux from the bacteria (reserpine growth assay) [1]: reduced efflux
